Test results from US9302991B2, “Arylamide derivatives as TTX-S blockers” (RaQualia Pharma Inc., priority 2010, dated 2016).

Biological target: T1, human Nav1.7 channels (Homo sapiens, UniProt Q15858)
T1 construct: expressed in transfected cells; host or cells: CHO
Assay: FRET assay, human Nav1.7 (EFS on FDSS)
Assay type: cell-based
Conditions: CHO cells expressing human Nav1.7, read-out: IC50 against Nav1.7
Description: The inhibitory activities of compounds against voltage gated sodium channels are determined by methodology well known in the art.
The ability of the aryl substituted carboxamide derivatives of the formula (I) to inhibit the NaV1.3, Nav1.7 and Nav1.5 channels is measured by Fluorescence Resonance Energy Transfer (FRET) assay and electrophysiology assay described below.
This screen is used to determine the effects of compounds on human Nav1.3, human Nav1.7, and human Nav1.5 channels, utilising electrical field stimulation (EFS) system in 96-well plate format on FDSS (Hamamatsu Photonics) platform. The change of membrane potential is monitored with FRET dye pair, oxonol (DiSBAC2(3)) and coumarin (CC2-DMPE).
CHO cells expressing human Nav1.7 channels are grown in T225 flasks, in a 5% CO2 humidified incubator to about 80% confluence. Media composition consists of HAM/F12 with Glutamax 1.10% FCS, 100 units/mL Penicillin and 100 microgram/mL Hygromycin.
Protocol: • Seed each cell lines (1×10^5 cells/well) into poly-D-lysine coated 96-well plates prior to experimentation. • Incubate at 37° C. in 5% CO2 for 24 hours. • Wash each well with assay buffer (140 mM NaCl, 4.5 mM KCl, 10 mM D-Glucose, 2 mM CaCl2, 1 mM MgCl2, 10 mM HEPES, pH 7.4 adjusted with NaOH) twice. • Add 1st loading solution containing 10 microM CC2-DMPE and 0.06% Pluronic F-127 in assay buffer. • Incubate the plate at room temperature in dark for 1 hour. • Remove 1st loading solution and added 2nd loading solution containing 15 microM DiSBAC2(3), 0.555 mM VABSC-1 and 0.004% Pluronic F-127 in assay buffer. • Place the plate under the dark at room temperature for 25 minutes. • Add compound solutions into the assay plate. • Set the assay plate in FDSS and placed an EFS device on the plate. • Measure EFS-induced fluorescent response by FDSS.
The data are analyzed and reported as normalized ratios of intensities measured at […]. The process of calculating these ratios is performed as follows:
This analysis is performed using a computerized specific program designed for FDSS generated data. Fluorescence ratio values are plotted using XLfit to determine an IC50 value for each compound.

T1 sequence (Q15858 whole entry): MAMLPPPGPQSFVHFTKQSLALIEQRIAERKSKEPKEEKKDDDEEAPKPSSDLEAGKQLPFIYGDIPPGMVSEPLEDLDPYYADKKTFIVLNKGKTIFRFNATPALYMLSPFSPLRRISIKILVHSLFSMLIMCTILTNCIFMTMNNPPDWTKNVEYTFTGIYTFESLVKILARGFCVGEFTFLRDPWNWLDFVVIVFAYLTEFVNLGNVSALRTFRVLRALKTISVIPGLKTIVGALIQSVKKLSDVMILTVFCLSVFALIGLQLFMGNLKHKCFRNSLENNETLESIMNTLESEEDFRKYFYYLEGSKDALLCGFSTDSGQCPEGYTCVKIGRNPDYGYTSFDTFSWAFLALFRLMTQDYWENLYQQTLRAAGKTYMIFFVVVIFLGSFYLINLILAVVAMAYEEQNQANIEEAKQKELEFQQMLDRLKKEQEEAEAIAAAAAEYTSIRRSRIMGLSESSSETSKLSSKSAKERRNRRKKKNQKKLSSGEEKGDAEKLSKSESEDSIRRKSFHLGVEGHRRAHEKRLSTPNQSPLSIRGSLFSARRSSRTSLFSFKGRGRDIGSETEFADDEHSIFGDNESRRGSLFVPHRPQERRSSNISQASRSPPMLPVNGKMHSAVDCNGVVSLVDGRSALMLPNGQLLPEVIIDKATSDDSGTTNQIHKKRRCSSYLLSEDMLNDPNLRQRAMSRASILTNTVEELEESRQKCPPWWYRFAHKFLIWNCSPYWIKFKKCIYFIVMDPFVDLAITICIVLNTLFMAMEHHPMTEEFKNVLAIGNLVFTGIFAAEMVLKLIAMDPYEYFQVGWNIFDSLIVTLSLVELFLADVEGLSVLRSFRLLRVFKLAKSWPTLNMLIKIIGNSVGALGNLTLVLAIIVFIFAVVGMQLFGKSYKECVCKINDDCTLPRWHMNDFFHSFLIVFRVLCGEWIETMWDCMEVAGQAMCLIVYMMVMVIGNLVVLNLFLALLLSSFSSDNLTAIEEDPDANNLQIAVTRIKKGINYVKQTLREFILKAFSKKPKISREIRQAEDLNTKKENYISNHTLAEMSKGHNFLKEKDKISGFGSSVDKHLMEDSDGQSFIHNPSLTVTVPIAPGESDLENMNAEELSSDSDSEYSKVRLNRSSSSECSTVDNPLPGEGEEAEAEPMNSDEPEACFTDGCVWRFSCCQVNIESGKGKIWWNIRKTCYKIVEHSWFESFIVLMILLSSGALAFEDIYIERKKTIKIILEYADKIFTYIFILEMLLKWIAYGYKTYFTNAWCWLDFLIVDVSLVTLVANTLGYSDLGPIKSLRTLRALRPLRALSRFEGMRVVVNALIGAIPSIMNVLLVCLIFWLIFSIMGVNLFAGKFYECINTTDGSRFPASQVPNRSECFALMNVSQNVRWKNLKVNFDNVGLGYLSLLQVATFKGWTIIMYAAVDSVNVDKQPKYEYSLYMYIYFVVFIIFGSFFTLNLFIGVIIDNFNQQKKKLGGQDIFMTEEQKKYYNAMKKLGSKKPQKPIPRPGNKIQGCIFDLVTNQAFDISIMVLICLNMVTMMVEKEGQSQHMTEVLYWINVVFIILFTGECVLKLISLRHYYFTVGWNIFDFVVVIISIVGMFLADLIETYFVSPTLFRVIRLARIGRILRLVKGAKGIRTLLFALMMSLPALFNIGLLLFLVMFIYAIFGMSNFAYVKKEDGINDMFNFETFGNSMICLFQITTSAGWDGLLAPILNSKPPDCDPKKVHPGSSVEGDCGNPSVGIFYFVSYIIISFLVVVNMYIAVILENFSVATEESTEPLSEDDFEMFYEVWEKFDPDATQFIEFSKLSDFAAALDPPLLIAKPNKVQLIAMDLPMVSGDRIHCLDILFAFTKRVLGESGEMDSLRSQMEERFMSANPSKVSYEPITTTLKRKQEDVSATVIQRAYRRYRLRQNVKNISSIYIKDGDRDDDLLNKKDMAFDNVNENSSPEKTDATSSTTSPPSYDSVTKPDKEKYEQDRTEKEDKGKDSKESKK

SMILES	IC50
CC(=O)Nc1cc(C(=O)N[C@H](C)c2cccc(C(F)(F)F)c2)ccn1 (single isomer, unassigned) [Example 7]	< 1000 nM
CC(NC(=O)c1ccnc(NC(=O)C2CC2)c1)c1ccc(OCC(F)(F)F)nc1 (single isomer, unassigned) [Example 9, 2-(cyclopropanecarboxamido)-N-(1-(6-(2,2,2-trifluoroethoxy)pyridin-3-yl)ethyl)isonicotinamide]	< 1000 nM
CCC(=O)Nc1cc(C(=O)NC(C)c2ccc(OCC(F)(F)F)nc2)ccn1 (single isomer, unassigned) [Example 11, 2-propionamido-N-(1-(6-(2,2,2-trifluoroethoxy)pyridin-3-yl)ethyl)isonicotinamide]	< 1000 nM
CCCC(=O)Nc1cc(C(=O)NC(C)c2ccc(OCC(F)(F)F)nc2)ccn1 (single isomer, unassigned) [Example 40, 2-butyramido-N-(1-(6-(2,2,2-trifluoroethoxy)pyridin-3-yl)ethyl)isonicotinamide]	< 1000 nM
CC(=O)Nc1cc(C(=O)NC(C)c2cnc(OCC(F)(F)F)c(Cl)c2)ccn1 (single isomer, unassigned) [Example 52, 2-acetamido-N-(1-(5-chloro-6-(2,2,2-trifluoroethoxy)pyridin-3-yl)ethyl)isonicotinamide]	< 1000 nM
CCC(=O)Nc1cc(C(=O)NC(C)c2ccc(OCC(F)(F)F)nc2)cc(C)n1 (single isomer, unassigned) [Example 60, 2-methyl-6-propionamido-N-(1-(6-(2,2,2-trifluoroethoxy)pyridin-3-yl)ethyl)isonicotinamide]	< 1000 nM
Cc1cc(C(=O)NC(C)c2ccc(OCC(F)(F)F)nc2)cc(NC(=O)C2CC2)n1 (single isomer, unassigned) [Example 61, 2-(cyclopropanecarboxamido)-6-methyl-N-(1-(6-(2,2,2-trifluoroethoxy)pyridin-3-yl)ethyl)isonicotinamide]	< 1000 nM
CC(=O)Nc1cc(C(=O)NC(C)c2cc(C)nc(OCC(F)(F)F)c2)ccn1 (single isomer, unassigned) [Example 73, 2-acetamido-N-(1-(2-methyl-6-(2,2,2-trifluoroethoxy)pyridin-4-yl)ethyl)isonicotinamide]	< 1000 nM
CCC(=O)Nc1cc(C(=O)NC(C)c2cnc(OCC(F)(F)F)c(F)c2)ccn1 (single isomer, unassigned) [Example 74, N-(1-(5-fluoro-6-(2,2,2-trifluoroethoxy)pyridin-3-yl)ethyl)-2-propionamidoisonicotinamide]	< 1000 nM
CC(NC(=O)c1ccnc(NC(=O)C2CC2)c1)c1cnc(OCC(F)(F)F)c(Cl)c1 (single isomer, unassigned) [Example 79, N-(1-(5-chloro-6-(2,2,2-trifluoroethoxy)pyridin-3-yl)ethyl)-2-(cyclopropanecarboxamido)isonicotinamide]	< 1000 nM
CC(=O)Nc1cc(C(=O)NC(C)c2cccc(OCC(F)(F)F)c2)ccn1 (single isomer, unassigned) [Example 84, 2-acetamido-N-(1-(3-(2,2,2-trifluoroethoxy)phenyl)ethyl)isonicotinamide]	< 1000 nM
CCC(=O)Nc1cc(C(=O)NC(C)c2ccc(OCCC(F)(F)F)nc2)ccn1 (single isomer, unassigned) [Example 115, 2-propionamido-N-(1-(6-(3,3,3-trifluoropropoxy)pyridin-3-yl)ethyl)isonicotinamide]	< 1000 nM
CC(NC(=O)c1ccnc(NC(=O)C2CC2)c1)c1ccc(OCCC(F)(F)F)nc1 (single isomer, unassigned) [Example 116, 2-(cyclopropanecarboxamido)-N-(1-(6-(3,3,3-trifluoropropoxy)pyridin-3-yl)ethyl)isonicotinamide]	< 1000 nM
CCC(=O)Nc1cc(C(=O)NC(C)c2cnc(OCC(F)(F)F)c(F)c2)cc(C)n1 (single isomer, unassigned) [Example 131, N-(1-(5-fluoro-6-(2,2,2-trifluoroethoxy)pyridin-3-yl)ethyl)-2-methyl-6-propionamidoisonicotinamide]	< 1000 nM
CCC(=O)Nc1cc(C(=O)NC(CC)c2ccc(OCC(F)(F)F)nc2)cc(C)n1 (single isomer, unassigned) [Example 133, 2-methyl-6-propionamido-N-(1-(6-(2,2,2-trifluoroethoxy)pyridin-3-yl)propyl)isonicotinamide]	< 1000 nM
CCC(=O)Nc1cc(C(=O)NC(C)c2ccc(OC(F)(F)F)cc2)cc(C)n1 (single isomer, unassigned) [Example 135, 2-methyl-6-propionamido-N-(1-(4-(trifluoromethoxy)phenyl)ethyl)isonicotinamide]	< 1000 nM
CCC(=O)Nc1cc(C(=O)NC(C)c2ccc(OCCC(F)(F)F)nc2)cc(C)n1 (single isomer, unassigned) [Example 140, 2-methyl-6-propionamido-N-(1-(6-(3,3,3-trifluoropropoxy)pyridin-3-yl)ethyl)isonicotinamide]	< 1000 nM
CCC(=O)Nc1cc(C(=O)NC(C)c2cnc(OCC(F)(F)F)c(OC)c2)ccn1 (single isomer, unassigned) [Example 142]	< 1000 nM
COc1cc(C(C)NC(=O)c2ccnc(NC(=O)C3CC3)c2)cnc1OCC(F)(F)F (single isomer, unassigned) [Example 143, 2-(cyclopropanecarboxamido)-N-(1-(5-methoxy-6-(2,2,2-trifluoroethoxy)pyridin-3-yl)ethyl)isonicotinamide]	< 1000 nM
CCC(=O)Nc1cc(C(=O)NC(C)c2cnc(OCC(F)(F)F)c(OC)c2)cc(C)n1 (single isomer, unassigned) [Example 144, N-(1-(5-methoxy-6-(2,2,2-trifluoroethoxy)pyridin-3-yl)ethyl)-2-methyl-6-propionamidoisonicotinamide]	< 1000 nM
CC(C)C(=O)Nc1cc(C(=O)NC(C)c2ccc(OCCC(F)(F)F)nc2)ccn1 (single isomer, unassigned) [Example 186, 2-isobutyramido-N-(1-(6-(3,3,3-trifluoropropoxy)pyridin-3-yl)ethyl)isonicotinamide]	< 1000 nM
COc1cc(C(C)NC(=O)c2cc(C)nc(NC(=O)C3CC3)n2)cnc1OCC(F)(F)F (single isomer, unassigned) [Example 194, 2-(cyclopropanecarboxamido)-N-(1-(5-methoxy-6-(2,2,2-trifluoroethoxy)pyridin-3-yl)ethyl)-6-methylpyrimidine-4-carboxamide]	< 1000 nM
CCC(=O)Nc1nccc(C(=O)NC(C)c2cnc(OCC(F)(F)F)c(Cl)c2)n1 (single isomer, unassigned) [Example 210, N-(1-(5-chloro-6-(2,2,2-trifluoroethoxy)pyridin-3-yl)ethyl)-2-propionamidopyrimidine-4-carboxamide]	< 1000 nM
CC(NC(=O)c1ccnc(NC(=O)C2CC2)n1)c1cnc(OCC(F)(F)F)c(Cl)c1 (single isomer, unassigned) [Example 211, N-(1-(5-chloro-6-(2,2,2-trifluoroethoxy)pyridin-3-yl)ethyl)-2-(cyclopropanecarboxamido)pyrimidine-4-carboxamide]	< 1000 nM
CC(C)C(=O)Nc1nccc(C(=O)NC(C)c2cnc(OCC(F)(F)F)c(Cl)c2)n1 (single isomer, unassigned) [Example 212, N-(1-(5-chloro-6-(2,2,2-trifluoroethoxy)pyridin-3-yl)ethyl)-2-isobutyramidopyrimidine-4-carboxamide]	< 1000 nM
CC(NC(=O)c1ccnc(NC(=O)C2CCC2)n1)c1cnc(OCC(F)(F)F)c(Cl)c1 (single isomer, unassigned) [Example 213, N-(1-(5-chloro-6-(2,2,2-trifluoroethoxy)pyridin-3-yl)ethyl)-2-(cyclobutanecarboxamido)pyrimidine-4-carboxamide]	< 1000 nM
CCC(=O)Nc1nc(C)cc(C(=O)NC(C)c2cnc(OCC(F)(F)F)c(Cl)c2)n1 (single isomer, unassigned) [Example 214, N-(1-(5-chloro-6-(2,2,2-trifluoroethoxy)pyridin-3-yl)ethyl)-6-methyl-2-propionamidopyrimidine-4-carboxamide]	< 1000 nM
Cc1cc(C(=O)NC(C)c2cnc(OCC(F)(F)F)c(Cl)c2)nc(NC(=O)C(C)C)n1 (single isomer, unassigned) [Example 216, N-(1-(5-chloro-6-(2,2,2-trifluoroethoxy)pyridin-3-yl)ethyl)-2-isobutyramido-6-methylpyrimidine-4-carboxamide]	< 1000 nM
CC(C)C(=O)Nc1cc(C(=O)NC(C)c2cnc(OCC(F)(F)F)c(F)c2)ccn1 (single isomer, unassigned) [Example 220, N-(1-(5-fluoro-6-(2,2,2-trifluoroethoxy)pyridin-3-yl)ethyl)-2-isobutyramidoisonicotinamide]	< 1000 nM
